Legend:
Settings in all cases: 72 h
Caco-2 [1] = test: cell viability relative to DMSO; higher = less toxic
Calu-3 [2] = test: as above
HepG2 [3] = test: as above
U2OS [4] = test: as above
Vero E6 [5] = test: as above
Caco-2 [6] = test: relative viability EC50 (midpoint between 100% and the lowest measured viability); higher = less toxic
Calu-3 [7] = test: as above
HepG2 [8] = test: as above
U2OS [9] = test: as above
Vero E6 [10] = test: as above
Caco-2 [11] = test: drug sensitivity score (DSS) for viability; higher = more toxic; extreme values may be limits of the assay
Calu-3 [12] = test: as above
HepG2 [13] = test: as above
U2OS [14] = test: as above
Vero E6 [15] = test: as above

Compound	cell viability (Caco-2 [1]; 1 nM) [%]	cell viability (Caco-2 [1]; 10 nM) [%]	cell viability (Caco-2 [1]; 100 nM) [%]	cell viability (Caco-2 [1]; 1000 nM) [%]	cell viability (Caco-2 [1]; 10000 nM) [%]	cell viability (Calu-3 [2]; 1 nM) [%]	cell viability (Calu-3 [2]; 10 nM) [%]	cell viability (Calu-3 [2]; 100 nM) [%]	cell viability (Calu-3 [2]; 1000 nM) [%]	cell viability (Calu-3 [2]; 10000 nM) [%]	cell viability (HepG2 [3]; 1 nM) [%]	cell viability (HepG2 [3]; 10 nM) [%]	cell viability (HepG2 [3]; 100 nM) [%]	cell viability (HepG2 [3]; 1000 nM) [%]	cell viability (HepG2 [3]; 10000 nM) [%]	cell viability (U2OS [4]; 1 nM) [%]	cell viability (U2OS [4]; 10 nM) [%]	cell viability (U2OS [4]; 100 nM) [%]	cell viability (U2OS [4]; 1000 nM) [%]	cell viability (U2OS [4]; 10000 nM) [%]	cell viability (Vero E6 [5]; 1 nM) [%]	cell viability (Vero E6 [5]; 10 nM) [%]	cell viability (Vero E6 [5]; 100 nM) [%]	cell viability (Vero E6 [5]; 1000 nM) [%]	cell viability (Vero E6 [5]; 10000 nM) [%]	relative viability EC50 (Caco-2 [6]) [µM]	relative viability EC50 (Calu-3 [7]) [µM]	relative viability EC50 (HepG2 [8]) [µM]	relative viability EC50 (U2OS [9]) [µM]	relative viability EC50 (Vero E6 [10]) [µM]	drug sensitivity score (Caco-2 [11])	drug sensitivity score (Calu-3 [12])	drug sensitivity score (HepG2 [13])	drug sensitivity score (U2OS [14])	drug sensitivity score (Vero E6 [15])
CC(C)SC(=N)N [S-isopropylisothiourea]	99	95	96.7	105	91.9	100	99.5	102	97.1	84.8	101	109	103	94.5	108	96.9	98.2	96.3	103	102	103	99.2	99.5	89.9	97.2	> 10	> 10	> 10	> 10	> 10	0	0.5	0	0	0
O=C(NNc1nc2cc(F)ccc2n2cccc12)c1cnccn1 [SC-144]	93.3	101	80.4	6.6	13.8	102	95.9	93.3	6	3.9	96	98.3	101	15.2	20.2	104	99.3	91.8	40.1	15.9	97.1	100	82.7	43.6	21.9	0.17	0.27	0.323	0.513	0.368	20	18.1	15.3	12.5	12.6
N[C@@H](Cc1cc(-c2ccc(Cl)cc2Cl)cc(CP(=O)(O)O)c1O)C(=O)O [SDZ-220-040]	103	99.5	94.3	94.3	102	105	104	98.2	108	110	97.4	108	99.2	104	89.1	105	98.6	103	98.2	100	98.7	102	106	104	100	> 10	> 10	> 10	> 10	> 10	0	0	0	0	0
Cc1cccc(/C=C/c2ccccc2)n1 [SIB-1893]	88.7	101	90.7	100	96.9	100	102	99.2	98.1	102	108	96.1	107	102	94.2	99.8	106	96.3	103	97.4	94	104	102	103	100	> 10	> 10	> 10	> 10	> 10	0	0	0	0	0
N[C@@H](C(=O)O)[C@@H](OCc1ccccc1)C(=O)O.N[C@H](C(=O)O)[C@H](OCc1ccccc1)C(=O)O [TBOA-(DL)]	96.3	94.6	89.8	90.2	92.4	96.7	87.8	92.4	98.4	109	100	94.1	91.5	96.6	82.5	99.5	101	97.2	95	99.2	104	100	101	96.6	98.8	> 10	> 10	> 10	> 10	> 10	0	0	0.3	0	0
COC1CCN(c2cccc(-c3cc(NC(C)=O)nc(-n4nc(C)cc4C)n3)n2)CC1 [TC-G-1004]	106	89.3	111	96.9	20.7	103	94.9	103	91.8	93.1	84.7	101	75.3	90.9	44	105	97.6	104	102	95	103	107	101	104	86.7	2.88	> 10	1.12	> 10	> 10	4.8	0	5.5	0	0.1
CC(C)(C)NCC(O)c1cc(O)cc(O)c1 (stereo not given) [TERBUTALINE HEMISULFATE]	99	104	88.7	91.8	98.2	104	106	99.7	95	98.3	109	102	106	94.5	92.3	102	98.6	105	100	106	105	101	101	105	98.9	> 10	> 10	> 10	> 10	> 10	0.6	0	0	0	0
Nc1nc(NC2CC2)cc(-c2cccc(Cl)c2Cl)n1 [TH-588]	92.1	91.1	96.4	93.7	96.8	95.5	94	101	104	98.5	95.4	97.1	102	101	95.4	96.3	99.2	105	97.9	98.6	100	104	98.1	101	89.6	> 10	> 10	> 10	> 10	> 10	0	0	0	0	0
CC(C)(C)C(=O)OCOP(=O)(COCCn1cnc2c(N)ncnc21)OCOC(=O)C(C)(C)C [adefovir-dipivoxil]	93.7	87.6	87.5	95.4	75.6	92.9	97.6	106	95.5	47.6	106	93.8	101	49.1	25.2	96.2	101	97.8	102	75.5	101	106	107	99.7	89.3	> 10	2.46	0.741	> 10	> 10	1.9	3.5	10.1	0.8	0
CC(=O)[C@H]1CC[C@H]2[C@@H]3CC[C@H]4C[C@H](O)CC[C@]4(C)[C@H]3C(=O)C[C@]12C [alfaxalone]	101	101	89.6	103	104	94.7	99.9	87.7	97.4	101	98.6	102	94.1	96.1	106	97.8	99.2	97.7	103	102	99.6	95.9	99.7	94.3	107	> 10	> 10	> 10	> 10	> 10	0	0	0	0	0
COc1cc(F)c(C(C)C)cc1-c1ccc(C(F)(F)F)cc1CN1C(=O)O[C@H](c2cc(C(F)(F)F)cc(C(F)(F)F)c2)[C@@H]1C [anacetrapib]	98.1	90.8	100	96.1	93.8	97.7	97	108	93.6	102	108	103	98.2	92.6	98.8	96.6	100	101	99.8	97.7	108	107	97.6	102	93.2	> 10	> 10	> 10	> 10	> 10	0	0	0	0	0
CN(C)C(=N)NCCC[C@H](N)C(=O)O [asymmetrical-dimethylarginine]	101	99.4	97.9	93.3	101	107	99.9	112	102	97.9	86.7	96.8	95.1	105	101	100	93.2	96.2	93.5	97	97.4	101	96.5	101	90.7	> 10	> 10	> 10	> 10	> 10	0	0	0	0	0
CNCC[C@@H](Oc1ccccc1C)c1ccccc1 [atomoxetine]	99	96.8	98.3	97.8	92.8	106	104	98.7	86	96.3	87.3	98.5	100	104	93.5	106	97.5	101	94.8	101	106	106	102	106	99.1	> 10	> 10	> 10	> 10	> 10	0	1.2	0	0	0
CN1[C@@H]2CC[C@H]1C[C@@H](OC(=O)c1cc(Cl)cc(Cl)c1)C2 [bemesetron]	104	97.8	103	94.9	82.2	86.5	87.7	94.5	94	95	98.7	101	91.3	107	106	98.7	96.7	101	98.7	99.7	98.2	103	95.8	99.5	104	> 10	> 10	> 10	> 10	> 10	1	0	0	0	0
